Columns and labels:
[1] = target: Angiotensin II receptor (Rattus norvegicus) (UniProt P29089+P25095+P35351); experiment: Duration of action as time for pressor response to fall below 30% for a single bolus by intravenous dose; type: functional, organism-based
Rattus norvegicus [2] = experiment: Compound was evaluated in vivo for inhibition of the AII pressor response in normotensive rat at dose 1 mg/kg, iv after 0.9 hour; type: functional
[3] = target: T1, Type-2 angiotensin II receptor (Homo sapiens) (UniProt P50052); experiment: In vitro antagonist activity against the Angiotensin II (type 2) receptor.; type: functional
T1 sequence (whole entry): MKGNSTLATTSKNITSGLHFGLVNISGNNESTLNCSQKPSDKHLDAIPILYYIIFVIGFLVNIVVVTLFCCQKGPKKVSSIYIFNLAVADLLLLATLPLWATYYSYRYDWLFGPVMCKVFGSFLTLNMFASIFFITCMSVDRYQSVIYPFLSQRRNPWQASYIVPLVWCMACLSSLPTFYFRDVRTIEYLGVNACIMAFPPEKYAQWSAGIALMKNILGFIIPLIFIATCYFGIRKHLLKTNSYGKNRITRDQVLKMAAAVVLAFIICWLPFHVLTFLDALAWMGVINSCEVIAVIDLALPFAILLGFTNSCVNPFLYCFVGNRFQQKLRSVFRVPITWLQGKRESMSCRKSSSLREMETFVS

Rattus norvegicus [4] = experiment: Compound was evaluated in vivo for inhibition of the AII pressor response in normotensive rat at dose 1 mg/kg, iv after 0.2 hour; type: functional
Rattus norvegicus [5] = experiment: The duration of action is expressed as the time for the % inhibition of pressor response to fall below 30% for a single bolus of the drug administered intravenously.; type: functional
Rattus norvegicus [6] = experiment: In vivo for inhibition of the AII pressor response in normotensive rat at dose 0.3 mg/kg(iv) after 0.8 hour; type: functional
[7] = target: T2, Type-1 angiotensin II receptor (Oryctolagus cuniculus, UniProt P34976); experiment: Ability to displace [125I]Sar1-Ile8-AII from angiotensin II receptor, type 1 in rabbit aorta in presence of 0.2% bovine serum albumin (BSA) was determined in vitro; type: tissue-based
T2 sequence (P34976 whole entry): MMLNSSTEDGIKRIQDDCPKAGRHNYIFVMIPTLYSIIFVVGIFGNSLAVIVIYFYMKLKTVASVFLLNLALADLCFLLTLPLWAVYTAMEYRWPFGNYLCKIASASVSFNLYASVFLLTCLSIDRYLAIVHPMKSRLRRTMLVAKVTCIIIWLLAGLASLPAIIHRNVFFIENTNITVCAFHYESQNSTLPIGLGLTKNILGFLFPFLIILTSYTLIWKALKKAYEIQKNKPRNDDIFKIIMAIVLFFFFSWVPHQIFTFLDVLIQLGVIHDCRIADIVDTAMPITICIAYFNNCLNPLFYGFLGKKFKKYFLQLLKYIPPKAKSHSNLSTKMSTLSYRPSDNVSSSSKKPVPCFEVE

Rattus norvegicus [8] = experiment: Compound was evaluated in vivo for inhibition of the AII pressor response in normotensive rat at dose 0.3 mg/kg, po; type: functional
Rattus norvegicus [9] = experiment: The duration of action is expressed as the time for the % inhibition of pressor response to fall below 30% for a single bolus of the drug administered perorally.; type: functional
Rattus norvegicus [10] = experiment: Compound was evaluated in vivo for inhibition of the AII pressor response in normotensive rat at dose 0.3 mg/kg, iv after 3.5 hr; type: functional
Rattus norvegicus [11] = experiment: Compound was evaluated in vivo for inhibition of the AII pressor response in normotensive rat at dose 0.3 mg/kg, iv after 6 hours; type: functional
[12] = target: T2, Type-1 angiotensin II receptor; experiment: Displacement of [125I]Sar1-Ile8-AII (without BSA) from type 1 Angiotensin II receptor of rabbit aorta; type: tissue-based

Compound | Duration [1] [h] | inhibition in vivo at 1 mg/kg (Rattus norvegicus [2]) [%] | Activity [3] [nM] | inhibition in vivo at 1 mg/kg (Rattus norvegicus [4]) [%] | Duration (Rattus norvegicus [5]) [h] | inhibition in vivo at 0.3 mg/kg (Rattus norvegicus [6]) [%] | IC50 [7] [nM] | inhibition in vivo at 0.3 mg/kg (Rattus norvegicus [8]) [%] | Duration (Rattus norvegicus [9]) [h] | inhibition in vivo at 0.3 mg/kg (Rattus norvegicus [10]) [%] | inhibition in vivo at 0.3 mg/kg (Rattus norvegicus [11]) [%] | IC50 [12] [nM]
CCCCc1nc2ccc(NC(C)=O)cc2c(=O)n1Cc1ccc(-c2ccccc2-c2nn[nH]n2)cc1 | 0.9 | 97 | > 1000 | – | – | – | – | – | – | – | – | –
CCCCc1nc2ccc(OC)cc2c(=O)n1Cc1ccc(-c2ccccc2-c2nn[nH]n2)cc1 | – | – | > 1000 | 49 | 0.2 | – | – | – | – | – | – | –
CCCCc1nc2ccc(N(C)C(=O)N(C)C(C)C)cc2c(=O)n1Cc1ccc(-c2ccccc2-c2nn[nH]n2)cc1 | 0.8 | – | > 1000 | – | – | 70 | – | – | – | – | – | –
CCCCc1nc2ccc(NC(=O)NC(C)C)cc2c(=O)n1Cc1ccc(-c2ccccc2-c2nn[nH]n2)cc1 | > 6 | – | > 1000 | – | – | – | 0.75 | 0 | 0 | 86 | 86 | 0.5

From ChEMBL document CHEMBL1127007, “Quinazolinones 2: QSAR and in vivo characterization of AT1 selective AII antagonists” (Bioorg Med Chem Lett, 1993)
